How the values were obtained:
Assay type in all cases: cell-based, E. coli
[1] = system: wild type; conditions: 10 microliters of 30% hydrogen peroxide or cumene hydroperoxide on 1/4 in filter disc on LB plate, 24 h at 37° C., typical numbers
[2] = system: oxyR2; conditions: 10 microliters of 30% hydrogen peroxide or cumene hydroperoxide on 1/4 in filter disc on LB plate, 24 h at 37° C., typical numbers
[3] = system: MC4100/oxyR^+; experiment: resistance to organic solvent, tetralin overlay on LB plate, wild type; conditions: wild type strain (oxyR^+); 5 mm depth tetralin overlay on LB agar; overnight at 37° C.
Method: (§1) Wild type MC4100/oxyR^+ and MC4100oxyR2 mutants were streaked onto the same LB plate made with a 80 mm diameter PYREX Petri dish (VWR International, West Chester, Pa.). Solvent tetralin (1,2,3,4-tetrahydronaphthalene) was then poured onto the LB agar surface to have a 5 mm depth of overlay. The plate was then covered with a Petri dish cover and sealed with a strip of parafilm (American National Can, Chicago, Ill.), and put into 37° C. incubator. After overnight culturing, tetralin was decanted and the plate was put into a fume hood for 30 min to allow evaporation of the remaining tetralin. A picture of the plate was taken with an Eagle Eye® II still imaging system (Stratagene, La Jolla, Calif.).

[4] = system: MC4100oxyR2; experiment: resistance to organic solvent, tetralin overlay on LB plate, oxyR2 mutant; conditions: oxyR2 mutant strain; 5 mm depth tetralin overlay on LB agar; overnight at 37° C.
Method: as §1

SMILES	Diameter of the zone killed [1] [mm]	Diameter of the zone killed [2] [mm]	colony growth under solvent overlay [3]	colony growth under solvent overlay [4]
OO [Hydrogen peroxide]	25	13	–	–
c1ccc2c(c1)CCCC2 [tetralin, 1,2,3,4-tetrahydronaphthalene]	–	–	No colony was observed	grew just fine
